Values of other authors as cited in EP1870093A1, “Pharmaceutical combination comprising adenosine A1 receptor antagonists and radiocontrast media” (Solvay Pharmaceuticals GmbH, priority 2006, dated 2007).

System: radiocontrast media induced nephropathy
Details: Shammas 2001; Welch 2002; Huber 2002

SMILES	protection against radiocontrast media induced nephropathy
Cn1c(=O)c2[nH]cnc2n(C)c1=O [Aminophylline, aminophylline]	does not appear to add a protective role
Cn1c(=O)c2[nH]cnc2n(C)c1=O [theophylline]	effective in preventing radiocontrast media induced nephropathy
